Test: Biodistribution experiments in normal mice after i.v. injection
Type: in vivo
Details: for tissue uptake dose at 10 min / tissue uptake dose at 1 h / tissue uptake dose at 3 h: male, ddY, total radioactivity, Biodistribution of radioactivity; for Biodistribution of radioactivity, Blood / Biodistribution of radioactivity, Bone (Femur) / Biodistribution of radioactivity, Brain / Biodistribution of radioactivity, Heart / Biodistribution of radioactivity, Kidney / Biodistribution of radioactivity, Large-intestine / Biodistribution of radioactivity, Liver / Biodistribution of radioactivity, Lung / Biodistribution of radioactivity, Muscle / Biodistribution of radioactivity, Pancreas / Biodistribution of radioactivity, Small-intestine / Biodistribution of radioactivity, Spleen / F/B ratio (Femur:blood ratio) / Biodistribution of radioactivity, Stomach: mice, mean (SD); for Biodistribution of radioactivity, Stomach: footnote b
In short: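 Male ddY mice (6 weeks, 27–32 g) received tracer i.v. (37–740 kBq/100 μL); 4–5 per group sacrificed at 10, 60 and 180 min. Weighed tissues and whole left femur (bone) gamma-counted with background and decay correction.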

[1] = mouse, in vivo, iv, Bone (Femur)
[2] = mouse, in vivo, iv, Large-intestine
[3] = mouse, in vivo, iv, Small-intestine

Compound: O=C(O)CC[C@@H](NC(=O)[C@@H](CCC(=O)O)NC(=O)[C@@H](CCC(=O)O)NC(=O)[C@@H](CCC(=O)O)NC(=O)[C@@H](CCC(=O)O)NC(=O)[C@@H](CCC(=O)O)NC(=O)[C@@H](CCC(=O)O)NC(=O)[C@@H](CCC(=O)O)NC(=O)[C@@H](CCC(=O)O)NC(=O)[C@@H](CCC(=O)O)NC(=O)[C@@H](CCC(=O)O)NC(=O)[C@@H](CCC(=O)O)NC(=O)[C@@H](CCC(=O)O)NC(=O)[C@@H](CCC(=O)O)NC(=O)CN1CCN(CC(=O)O)CCN(CC(=O)O)CCN(CC(=O)O)CC1)C(=O)O [^67Ga-DOTA-(D-Glu)14, metal not drawn]
- tissue uptake dose at 10 min (mouse, in vivo, iv, Blood): 2.09 %ID
- tissue uptake dose at 1 h (mouse, in vivo, iv, Blood): 0.1 %ID
- tissue uptake dose at 3 h (mouse, in vivo, iv, Blood): 0.01 %ID
- tissue uptake dose at 10 min [1]: 11 %ID
- tissue uptake dose at 1 h [1]: 11.8 %ID
- tissue uptake dose at 3 h [1]: 12.2 %ID
- tissue uptake dose at 10 min (mouse, in vivo, iv, Brain): 0.05 %ID
- tissue uptake dose at 1 h (mouse, in vivo, iv, Brain): 0.01 %ID
- tissue uptake dose at 3 h (mouse, in vivo, iv, Brain): 0.01 %ID
- tissue uptake dose at 10 min (mouse, in vivo, iv, Heart): 0.79 %ID
- tissue uptake dose at 1 h (mouse, in vivo, iv, Heart): 0.08 %ID
- tissue uptake dose at 3 h (mouse, in vivo, iv, Heart): 0.05 %ID
- tissue uptake dose at 10 min (mouse, in vivo, iv, Kidney): 13.4 %ID
- tissue uptake dose at 1 h (mouse, in vivo, iv, Kidney): 10.6 %ID
- tissue uptake dose at 3 h (mouse, in vivo, iv, Kidney): 6.59 %ID
- tissue uptake dose at 10 min [2]: 0.42 %ID
- tissue uptake dose at 1 h [2]: 0.18 %ID
- tissue uptake dose at 3 h [2]: 0.25 %ID
- tissue uptake dose at 10 min (mouse, in vivo, iv, Liver): 0.46 %ID
- tissue uptake dose at 1 h (mouse, in vivo, iv, Liver): 0.12 %ID
- tissue uptake dose at 3 h (mouse, in vivo, iv, Liver): 0.08 %ID
- tissue uptake dose at 10 min (mouse, in vivo, iv, Lung): 1.65 %ID
- tissue uptake dose at 1 h (mouse, in vivo, iv, Lung): 0.13 %ID
- tissue uptake dose at 3 h (mouse, in vivo, iv, Lung): 0.04 %ID
- tissue uptake dose at 10 min (mouse, in vivo, iv, Muscle): 0.78 %ID
- tissue uptake dose at 1 h (mouse, in vivo, iv, Muscle): 0.19 %ID
- tissue uptake dose at 3 h (mouse, in vivo, iv, Muscle): 0.02 %ID
- tissue uptake dose at 10 min (mouse, in vivo, iv, Pancreas): 0.68 %ID
- tissue uptake dose at 1 h (mouse, in vivo, iv, Pancreas): 0.13 %ID
- tissue uptake dose at 3 h (mouse, in vivo, iv, Pancreas): 0.06 %ID
- tissue uptake dose at 10 min [3]: 0.37 %ID
- tissue uptake dose at 1 h [3]: 0.22 %ID
- tissue uptake dose at 3 h [3]: 0.15 %ID
- tissue uptake dose at 10 min (mouse, in vivo, iv, Spleen): 0.37 %ID
- tissue uptake dose at 1 h (mouse, in vivo, iv, Spleen): 0.06 %ID
- tissue uptake dose at 3 h (mouse, in vivo, iv, Spleen): 0.03 %ID
- tissue uptake dose at 10 min (mouse, in vivo, iv, Stomach): 0.29 %ID
- tissue uptake dose at 1 h (mouse, in vivo, iv, Stomach): 0.19 %ID
- tissue uptake dose at 3 h (mouse, in vivo, iv, Stomach): 0.29 %ID
- Accumulation of radioactivity in bone (in words) (mouse, in vivo, iv): high accumulation and retention of radioactivity in bone
- Clearance from the blood (in words) (mouse, in vivo, iv): rapid clearance from the blood
- Radioactivity in the kidneys (in words) (mouse, in vivo, iv): retained

Compound: O=C(O)CC[C@H](NC(=O)[C@H](CCC(=O)O)NC(=O)[C@H](CCC(=O)O)NC(=O)[C@H](CCC(=O)O)NC(=O)[C@H](CCC(=O)O)NC(=O)[C@H](CCC(=O)O)NC(=O)[C@H](CCC(=O)O)NC(=O)[C@H](CCC(=O)O)NC(=O)[C@H](CCC(=O)O)NC(=O)[C@H](CCC(=O)O)NC(=O)[C@H](CCC(=O)O)NC(=O)[C@H](CCC(=O)O)NC(=O)[C@H](CCC(=O)O)NC(=O)[C@H](CCC(=O)O)NC(=O)CN1CCN(CC(=O)O)CCN(CC(=O)O)CCN(CC(=O)O)CC1)C(=O)O [^67Ga-DOTA-(L-Glu)14, metal not drawn]
- tissue uptake dose at 10 min (mouse, in vivo, iv, Blood): 1.85 %ID
- tissue uptake dose at 1 h (mouse, in vivo, iv, Blood): 0.12 %ID
- tissue uptake dose at 3 h (mouse, in vivo, iv, Blood): 0.05 %ID
- tissue uptake dose at 10 min [1]: 9.81 %ID
- tissue uptake dose at 1 h [1]: 11.1 %ID
- tissue uptake dose at 3 h [1]: 10.9 %ID
- tissue uptake dose at 10 min (mouse, in vivo, iv, Brain): 0.05 %ID
- tissue uptake dose at 1 h (mouse, in vivo, iv, Brain): 0.01 %ID
- tissue uptake dose at 3 h (mouse, in vivo, iv, Brain): 0.03 %ID
- tissue uptake dose at 10 min (mouse, in vivo, iv, Heart): 0.67 %ID
- tissue uptake dose at 1 h (mouse, in vivo, iv, Heart): 0.1 %ID
- tissue uptake dose at 3 h (mouse, in vivo, iv, Heart): 0.06 %ID
- tissue uptake dose at 10 min (mouse, in vivo, iv, Kidney): 22.1 %ID
- tissue uptake dose at 1 h (mouse, in vivo, iv, Kidney): 26.4 %ID
- tissue uptake dose at 3 h (mouse, in vivo, iv, Kidney): 25.1 %ID
- tissue uptake dose at 10 min [2]: 0.37 %ID
- tissue uptake dose at 1 h [2]: 0.07 %ID
- tissue uptake dose at 3 h [2]: 0.23 %ID
- tissue uptake dose at 10 min (mouse, in vivo, iv, Liver): 0.47 %ID
- tissue uptake dose at 1 h (mouse, in vivo, iv, Liver): 0.13 %ID
- tissue uptake dose at 3 h (mouse, in vivo, iv, Liver): 0.14 %ID
- tissue uptake dose at 10 min (mouse, in vivo, iv, Lung): 1.57 %ID
- tissue uptake dose at 1 h (mouse, in vivo, iv, Lung): 0.13 %ID
- tissue uptake dose at 3 h (mouse, in vivo, iv, Lung): 0.06 %ID
- tissue uptake dose at 10 min (mouse, in vivo, iv, Muscle): 0.63 %ID
- tissue uptake dose at 1 h (mouse, in vivo, iv, Muscle): 0.1 %ID
- tissue uptake dose at 3 h (mouse, in vivo, iv, Muscle): 0.3 %ID
- tissue uptake dose at 10 min (mouse, in vivo, iv, Pancreas): 0.59 %ID
- tissue uptake dose at 1 h (mouse, in vivo, iv, Pancreas): 0.13 %ID
- tissue uptake dose at 3 h (mouse, in vivo, iv, Pancreas): 0.08 %ID
- tissue uptake dose at 10 min [3]: 0.5 %ID
- tissue uptake dose at 1 h [3]: 0.13 %ID
- tissue uptake dose at 3 h [3]: 0.15 %ID
- tissue uptake dose at 10 min (mouse, in vivo, iv, Spleen): 0.44 %ID
- tissue uptake dose at 1 h (mouse, in vivo, iv, Spleen): 0.1 %ID
- tissue uptake dose at 3 h (mouse, in vivo, iv, Spleen): 0.11 %ID
- tissue uptake dose at 10 min (mouse, in vivo, iv, Stomach): 0.22 %ID
- tissue uptake dose at 1 h (mouse, in vivo, iv, Stomach): 0.07 %ID
- tissue uptake dose at 3 h (mouse, in vivo, iv, Stomach): 0.07 %ID
- Accumulation of radioactivity in bone (in words) (mouse, in vivo, iv): high accumulation and retention of radioactivity in bone
- Clearance from the blood (in words) (mouse, in vivo, iv): rapid clearance from the blood
- Radioactivity in the kidneys (in words) (mouse, in vivo, iv): retained

Compound: O.O.O=P([O-])([O-])CP(=O)([O-])[O-].[99Tc+4] [^99mTc-MDP, ^99mTc-methylenediphosphonate, reference compound]
- Biodistribution of radioactivity, Blood (i.v., 10 min after injection): 2.43 (0.10) % injected dose
- Biodistribution of radioactivity, Bone (Femur) (i.v., 10 min after injection): 20.76 (1.51) % injected dose
- Biodistribution of radioactivity, Brain (i.v., 10 min after injection): 0.06 (0.01) % injected dose
- Biodistribution of radioactivity, Heart (i.v., 10 min after injection): 0.94 (0.05) % injected dose
- Biodistribution of radioactivity, Kidney (i.v., 10 min after injection): 10.44 (1.56) % injected dose
- Biodistribution of radioactivity, Large-intestine (i.v., 10 min after injection): 0.61 (0.20) % injected dose
- Biodistribution of radioactivity, Liver (i.v., 10 min after injection): 0.61 (0.02) % injected dose
- Biodistribution of radioactivity, Lung (i.v., 10 min after injection): 1.80 (0.16) % injected dose
- Biodistribution of radioactivity, Muscle (i.v., 10 min after injection): 0.57 (0.09) % injected dose
- Biodistribution of radioactivity, Pancreas (i.v., 10 min after injection): 0.77 (0.10) % injected dose
- Biodistribution of radioactivity, Small-intestine (i.v., 10 min after injection): 0.69 (0.15) % injected dose
- Biodistribution of radioactivity, Spleen (i.v., 10 min after injection): 0.54 (0.07) % injected dose
- F/B ratio (Femur:blood ratio) (i.v., 10 min after injection): 8.54 (0.57)
- Biodistribution of radioactivity, Stomach (i.v., 10 min after injection): 0.63 (0.14) % injected dose
- Biodistribution of radioactivity, Blood (i.v., 60 min after injection): 0.23 (0.04) % injected dose
- Biodistribution of radioactivity, Bone (Femur) (i.v., 60 min after injection): 27.92 (3.25) % injected dose
- Biodistribution of radioactivity, Brain (i.v., 60 min after injection): 0.02 (0.00) % injected dose
- Biodistribution of radioactivity, Heart (i.v., 60 min after injection): 0.16 (0.02) % injected dose
- Biodistribution of radioactivity, Kidney (i.v., 60 min after injection): 2.03 (0.50) % injected dose
- Biodistribution of radioactivity, Large-intestine (i.v., 60 min after injection): 0.14 (0.04) % injected dose
- Biodistribution of radioactivity, Liver (i.v., 60 min after injection): 0.27 (0.05) % injected dose
- Biodistribution of radioactivity, Lung (i.v., 60 min after injection): 0.30 (0.03) % injected dose
- Biodistribution of radioactivity, Muscle (i.v., 60 min after injection): 0.13 (0.04) % injected dose
- Biodistribution of radioactivity, Pancreas (i.v., 60 min after injection): 0.13 (0.02) % injected dose
- Biodistribution of radioactivity, Small-intestine (i.v., 60 min after injection): 1.55 (1.68) % injected dose
- Biodistribution of radioactivity, Spleen (i.v., 60 min after injection): 0.14 (0.02) % injected dose
- F/B ratio (Femur:blood ratio) (i.v., 60 min after injection): 120.87 (9.30)
- Biodistribution of radioactivity, Stomach (i.v., 60 min after injection): 0.70 (0.37) % injected dose
- Biodistribution of radioactivity, Blood (i.v., 180 min after injection): 0.05 (0.01) % injected dose
- Biodistribution of radioactivity, Bone (Femur) (i.v., 180 min after injection): 29.03 (2.12) % injected dose
- Biodistribution of radioactivity, Brain (i.v., 180 min after injection): 0.01 (0.00) % injected dose
- Biodistribution of radioactivity, Heart (i.v., 180 min after injection): 0.07 (0.02) % injected dose
- Biodistribution of radioactivity, Kidney (i.v., 180 min after injection): 1.22 (0.36) % injected dose
- Biodistribution of radioactivity, Large-intestine (i.v., 180 min after injection): 0.23 (0.07) % injected dose
- Biodistribution of radioactivity, Liver (i.v., 180 min after injection): 0.16 (0.04) % injected dose
- Biodistribution of radioactivity, Lung (i.v., 180 min after injection): 0.10 (0.02) % injected dose
- Biodistribution of radioactivity, Muscle (i.v., 180 min after injection): 0.06 (0.01) % injected dose
- Biodistribution of radioactivity, Pancreas (i.v., 180 min after injection): 0.07 (0.01) % injected dose
- Biodistribution of radioactivity, Small-intestine (i.v., 180 min after injection): 0.26 (0.08) % injected dose
- Biodistribution of radioactivity, Spleen (i.v., 180 min after injection): 0.07 (0.01) % injected dose
- F/B ratio (Femur:blood ratio) (i.v., 180 min after injection): 546.64 (91.83)
- Biodistribution of radioactivity, Stomach (i.v., 180 min after injection): 0.29 (0.07) % injected dose
- Accumulation of radioactivity in bone (in words) (normal mice, i.v.): high accumulation and retention of radioactivity in bone
